Results from article PMC10238538, “Human soluble CD39 displays substrate inhibition in a substrate-specific manner” (Scientific Reports, 2023).

What was measured:
[1] = target: T1, Recombinant Human CD39/ENTPD1 Protein (Homo sapiens, UniProt P49961); assay: Inhibition of CD39 activity by reaction products (nucleoside monophosphates), Malachite Green phosphate assay; assay type: biochemical
T1 construct: purchased R&D System (Biotechne) 4397-EN-010
T1 sequence (P49961 38-478 limits assumed): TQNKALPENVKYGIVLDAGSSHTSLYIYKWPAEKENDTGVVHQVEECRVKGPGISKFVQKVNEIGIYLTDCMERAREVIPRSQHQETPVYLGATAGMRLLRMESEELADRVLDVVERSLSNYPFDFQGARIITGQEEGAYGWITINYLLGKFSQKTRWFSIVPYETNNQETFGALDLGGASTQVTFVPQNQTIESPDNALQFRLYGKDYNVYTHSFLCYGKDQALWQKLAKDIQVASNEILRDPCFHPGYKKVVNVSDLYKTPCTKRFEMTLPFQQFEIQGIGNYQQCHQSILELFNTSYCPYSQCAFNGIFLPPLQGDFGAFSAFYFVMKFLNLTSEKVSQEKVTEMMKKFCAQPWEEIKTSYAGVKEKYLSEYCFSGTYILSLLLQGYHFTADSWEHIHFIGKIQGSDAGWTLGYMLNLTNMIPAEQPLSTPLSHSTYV

[2] = target: T1, Recombinant Human CD39/ENTPD1 Protein; set-up: method as in PMID 23425137; conditions: result in words; cited from earlier work
[3] = target: T1, Recombinant Human CD39/ENTPD1 Protein; assay: CD39 activity with varying substrate concentration (phosphate release, Malachite Green), fitted to substrate inhibition model; assay type: biochemical; conditions: for Vmax: 0.02 µg/ml enzyme, 5 mM CaCl2, 30 min, room temperature; for kcat: Vmax divided by CD39 concentration; for substrate inhibition at high substrate concentrations: result in words
[4] = compound as substrate, Haldane substrate inhibition model
[5] = substrate inhibition constant, compound as substrate, Haldane substrate inhibition model

Row | SMILES | IC50 ([1]; 24 μM GTP as substrate) [µM] | Km [3, 4] [µM] | Vmax [3, 4] [nmol/min] | kcat ([3]; compound as substrate) [s⁻¹] | Ki [3, 5] [µM] | substrate inhibition at high substrate concentrations ([3]; compound as substrate) | Ki ([3]; substrate inhibition constant as stated in text) [µM] | IC50 ([1]; 24 μM UTP as substrate) [µM] | hydrolysis by CD39 [2]
1 | Nc1nc2c(ncn2[C@@H]2O[C@H](COP(=O)(O)O)[C@@H](O)[C@H]2O)c(=O)[nH]1 [GMP] | ~350 |  |  |  |  |  |  |  | 
2 | CCCCSc1nc2c(N)ncnc2n1C1OC(COP(=O)(O)OP(=O)(O)OP(=O)(O)O)C(O)C1O (centres unmarked) [8-butylthio (BuS)-ATP] |  |  |  |  |  |  |  |  | resistant to hydrolysis by CD39
3 | Nc1ncnc2c1ncn2[C@@H]1O[C@H](COP(=O)(O)OP(=O)(O)O)[C@@H](O)[C@H]1O [ADP] |  | 5.71 | 0.021 | 17.8 | 358 |  |  |  | 
4 | O=c1ccn([C@@H]2O[C@H](COP(=O)(O)OP(=O)(O)O)[C@@H](O)[C@H]2O)c(=O)[nH]1 [UDP] |  | 13.3 | 0.025 | 21.2 |  | almost no substrate inhibition |  |  | 
5 | CSc1nc(N)c2ncn([C@@H]3O[C@H](COP(=O)(O)OP(=O)(O)O)[C@@H](O)[C@H]3O)c2n1 [2-MeS-ADP, 2-methylthio-ADP] |  | 9.36 | 0.021 | 17.8 |  | no substrate inhibition |  |  | 
6 | CCCCSc1nc2c(N)ncnc2n1[C@@H]1O[C@H](COP(=O)(O)OP(=O)(O)O)[C@@H](O)[C@H]1O [8-BuS-ADP] |  |  |  |  |  |  |  |  | resistant to hydrolysis by CD39
7 | O=c1ccn([C@@H]2O[C@H](COP(=O)(O)OP(=O)(O)OP(=O)(O)O)[C@@H](O)[C@H]2O)c(=O)[nH]1 [UTP] |  | 9.38 | 0.024 | 20.4 | 1960 | weak substrate inhibition |  |  | 
8 | O=c1ccn([C@@H]2O[C@H](COP(=O)(O)O)[C@@H](O)[C@H]2O)c(=O)[nH]1 [UMP] |  |  |  |  |  |  |  | ~165 | 

Continued, in another order:

Row | IC50 ([1]; 24 μM GTP as substrate) [µM] | Km [3, 4] [µM] | Vmax [3, 4] [nmol/min] | kcat ([3]; compound as substrate) [s⁻¹] | Ki [3, 5] [µM] | substrate inhibition at high substrate concentrations ([3]; compound as substrate) | Ki ([3]; substrate inhibition constant as stated in text) [µM] | IC50 ([1]; 24 μM UTP as substrate) [µM] | SMILES | hydrolysis by CD39 [2]
9 |  | 20.6 | 0.021 | 17.8 | 680 | Substrate inhibition was seen |  |  | Nc1nc2c(ncn2[C@@H]2O[C@H](COP(=O)(O)OP(=O)(O)OP(=O)(O)O)[C@@H](O)[C@H]2O)c(=O)[nH]1 [GTP] | 
10 |  | 5.37 | 0.018 | 15.3 | 1820 |  |  |  | CSc1nc(N)c2ncn([C@@H]3O[C@H](COP(=O)(O)OP(=O)(O)OP(=O)(O)O)[C@@H](O)[C@H]3O)c2n1 [2-MeS-ATP] | 
11 |  | 26.6 | 0.022 | 18.7 |  |  | > 1000 |  | Nc1nc2c(ncn2[C@@H]2O[C@H](COP(=O)(O)OP(=O)(O)O)[C@@H](O)[C@H]2O)c(=O)[nH]1 [GDP] | 
12 |  | 4.01 | 0.020 | 17.0 | 818 |  |  |  | Nc1ncnc2c1ncn2[C@@H]1O[C@H](COP(=O)(O)OP(=O)(O)OP(=O)(O)O)[C@@H](O)[C@H]1O [ATP] | 
